Test results from ChEMBL document CHEMBL3091423, “Synthesis, antioxidant capacity, and structure-activity relationships of tri-O-methylnorbergenin analogues on tyrosinase inhibition” (Bioorg Med Chem Lett, 2013).

How the values were obtained:
Tyrosinase [1] = molecular target: T1, Tyrosinase (Agaricus bisporus, UniProt O42713)
T1 sequence (O42713 whole entry): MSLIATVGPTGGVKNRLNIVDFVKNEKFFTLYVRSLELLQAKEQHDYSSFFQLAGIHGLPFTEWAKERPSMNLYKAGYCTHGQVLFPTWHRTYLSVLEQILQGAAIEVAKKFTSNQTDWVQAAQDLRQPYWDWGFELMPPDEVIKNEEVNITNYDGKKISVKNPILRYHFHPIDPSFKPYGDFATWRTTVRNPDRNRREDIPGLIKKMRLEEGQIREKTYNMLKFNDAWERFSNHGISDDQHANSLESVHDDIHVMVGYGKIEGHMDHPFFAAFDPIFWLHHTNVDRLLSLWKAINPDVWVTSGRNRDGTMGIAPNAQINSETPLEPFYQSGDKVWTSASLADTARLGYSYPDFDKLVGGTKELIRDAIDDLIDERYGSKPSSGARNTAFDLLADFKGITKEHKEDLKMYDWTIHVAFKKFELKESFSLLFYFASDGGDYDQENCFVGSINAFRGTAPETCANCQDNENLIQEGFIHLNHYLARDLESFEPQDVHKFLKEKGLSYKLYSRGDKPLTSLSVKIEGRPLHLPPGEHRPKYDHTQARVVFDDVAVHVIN
Description: (§1) Inhibition of mushroom tyrosinase using L-tyrosine as substrate preincubated for 10 mins followed by enzyme addition measured after 20 mins by microplate reader analysis

Tyrosinase [2] = molecular target: T1, Tyrosinase; assay: Inhibition of mushroom tyrosinase using L-tyrosine as substrate by Dixon plot analysis
[3] = molecular target: T2, Tyrosinase (Agaricus bisporus) (UniProt O42713)
T2 sequence (whole entry): T1 sequence (O42713 whole entry)
Description: as §1

Tyrosinase [4] = molecular target: T1, Tyrosinase; assay: Mixed inhibition of mushroom tyrosinase using L-tyrosine as substrate by Dixon/Cornish-Bowden plot analysis
Tyrosinase [5] = molecular target: T1, Tyrosinase; assay: Uncompetitive inhibition of mushroom tyrosinase using L-tyrosine as substrate by Dixon/Cornish-Bowden plot analysis

Row | IC50 (Tyrosinase [1]) | Compound | further results
1 | > 100 µM | COc1ccc(C(=O)OC[C@H]2O[C@H]3c4c(cc(OC)c(OC)c4OC)C(=O)O[C@@H]3[C@@H](O)[C@@H]2O)cc1 | 
2 | > 100 µM | COc1cc(C(=O)OC[C@H]2O[C@H]3c4c(cc(OC)c(OC)c4OC)C(=O)O[C@@H]3[C@@H](O)[C@@H]2O)cc(OC)c1O | 
3 | 9.1 µM | COc1cc2c(c(OC)c1OC)[C@@H]1O[C@H](COC(=O)c3ccc(O)c(O)c3)[C@@H](O)[C@H](O)[C@H]1OC2=O | Ki (Tyrosinase [2]): 4.5 µM; inhibition [3]: Dose-dependent effect; Ki (Tyrosinase [4]): 7.3 µM
4 | > 100 µM | COc1c(O)cc2c(c1O)[C@@H]1O[C@H](CO)[C@@H](O)[C@H](O)[C@H]1OC2=O [BERGENIN] | 
5 | > 100 µM | COc1cc(C(=O)O)cc(OC)c1O [SYRINGIC ACID] | 
6 | > 100 µM | COc1ccc(C(=O)OC[C@H]2O[C@H]3c4c(cc(OC)c(OC)c4OC)C(=O)O[C@@H]3[C@@H](O)[C@@H]2O)cc1OC | 
7 | > 100 µM | COc1cc(OC)cc(C(=O)OC[C@H]2O[C@H]3c4c(cc(OC)c(OC)c4OC)C(=O)O[C@@H]3[C@@H](O)[C@@H]2O)c1 | 
8 | > 100 µM | O=C(O)c1ccc(O)c(O)c1 [PROTOCATECHUIC ACID] | 
9 | > 100 µM | COc1cc2c(c(OC)c1OC)[C@@H]1O[C@H](COC(=O)c3ccccc3)[C@@H](O)[C@H](O)[C@H]1OC2=O | 
10 | 38.8 µM | COc1ccc(C(=O)OC[C@H]2O[C@H]3c4c(cc(OC)c(OC)c4OC)C(=O)O[C@@H]3[C@@H](O)[C@@H]2O)cc1O | inhibition [3]: Dose-dependent effect; Ki (Tyrosinase [5]): 107 µM
11 | 31.5 µM | COc1cc2c(c(OC)c1OC)[C@@H]1O[C@H](COC(=O)c3ccc(O)cc3)[C@@H](O)[C@H](O)[C@H]1OC2=O | Ki (Tyrosinase [2]): 74.8 µM; inhibition [3]: Dose-dependent effect; Ki (Tyrosinase [4]): 121 µM
12 | > 100 µM | O=C(O)c1ccc(O)cc1 [PARABEN] | 
13 | 17.5 µM | COc1c(O)cc2c(c1O)[C@@H]1O[C@H](COC(=O)c3ccc(O)c(O)c3)[C@@H](O)[C@H](O)[C@H]1OC2=O | 
14 | > 100 µM | COc1cc(C(=O)OC[C@H]2O[C@H]3c4c(cc(OC)c(OC)c4OC)C(=O)O[C@@H]3[C@@H](O)[C@@H]2O)ccc1O | 
15 | > 100 µM | COc1ccc(C(=O)O)cc1 [p-ANISIC ACID] | 
16 | > 100 µM | COc1cc(OC)cc(C(=O)O)c1 [3,5-DIMETHOXYBENZOIC ACID] | 
17 | > 100 µM | COc1cc2c(c(OC)c1OC)[C@H]1O[C@@H](CO)[C@H](O)[C@@H](O)[C@@H]1OC2=O | 
18 | > 100 µM | COc1ccc(C(=O)O)cc1O [ISOVANILLIC ACID] | 

Row | Compound | IC50 (Tyrosinase [1]) | further results
19 | COc1ccc(C(=O)O)cc1OC [VERATRIC ACID] | > 100 µM | 
20 | O=C(O)c1ccccc1 [BENZOIC ACID] | > 100 µM | 
